According to patent US20190262327A1, “COMBINATION OF A BACE INHIBITOR AND AN ANTIBODY OR ANTIGEN-BINDING FRAGMENT FOR THE TREATMENT OF A DISORDER ASSOCIATED WITH THE ACCUMULATION OF AMYLOID BETA” (ASTRAZENECA AB, priority 2016, published 2019):

Tested on: sAPPβ release in SH-SY5Y cells
Experiment: sAPPβ Release Assay
Assay type: cell-based
Conditions: Homo sapiens, 17 h
Description: Thaw cells and seed at a conc. of around 10000 cells/well in DMEM/F-12 with Glutamax, 10% FCS and 1% non-essential amino acids to a 384-well tissue culture treated plate, […] cell susp/well. The cell plates were then incubated for 7-24 h at 37° C., 5% CO2. The cell medium was removed, followed by addition of 30 μL compound diluted in DMEM/F-12 with Glutamax, 10% FCS, 1% non-essential amino acids and 1% PeSt to a final conc. of 1% DMSO. […] Meso Scale Discovery (MSD) plates were used for the detection of sAPPβ release. MSD sAPPβ plates were blocked in 1% BSA in Tris wash buffer (40 μL/well) for 1 h on shake at r.t. and washed 1 time in Tris wash buffer (40 μL/well). 20 μL of medium was transferred to the pre-blocked and washed MSD sAPPβ microplates, and the cell plates were further used in an ATP assay to measure cytotoxicity. The MSD plates were incubated with shaking at r.t. for 2 h and the media discarded. 10 μL detection antibody was added (1 nM) per well followed by incubation with shaking at r.t. for 2 h and then discarded. 40 μL Read Buffer was added per well and the plates were read in a SECTOR Imager.

CC#Cc1cncc(-c2ccc3c(c2)[C@@]2(N=C(C)C(N)=N2)[C@]2(CC[C@H](OC)CC2)C3)c1 [(1r,1′R,4R)-4-methoxy-5″-methyl-6′-[5-(prop-1-yn-1-yl)pyridin-3-yl]-3′H-dispiro[cyclohexane-1,2′-indene-1′2″-imidazol]-4″-amine]
IC50: 0.1 nM
